Among the test systems are CCRF-CEM leukemia; A549 NSCLC; MCF7 breast; DU-145 prostate; SF-295 CNS; HS 578T breast; UACC-62 melanoma; SN12C renal; NCI-H522 lung; A498 renal.
What all share (assay): DTP human tumour cell line panel, 48 h

Molecules are shown by their SMILES.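 The compound was tested at five concentrations on cells cultured in 96-well plates, with a 48-hour exposure period. GI50 marks 50% less growth. TGI denotes the concentration required for complete inhibition of growth.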

`Cn1cc(C2=C(c3c4n(c5ccccc35)CC(CN)C4)C(=O)NC2=O)c2ccccc21` (stereo not given): the GI50 (in general, the concentration giving 50% growth inhibition) was 4.82 µM in the test on CCRF-CEM leukemia; 3.74 µM in the test with A549 NSCLC; 1.4 µM with MCF7 breast; 4.02 µM in the test with DU-145 prostate; 3.54 µM with SF-295 CNS; 1.03 µM in the test on HS 578T breast. Besides, the GI50 in the test on UACC-62 melanoma is 3.3 µM; with SN12C renal it was 3.4 µM; in the test with NCI-H522 lung, 3 µM; with A498 renal, 2.96 µM. Also, the total growth inhibition concentration (TGI) (usually the concentration at which net growth stops) came out at 25 µM in the test on CCRF-CEM leukemia; 10.9 µM in the test with A549 NSCLC; 4.85 µM in the test with MCF7 breast; 9.53 µM in the test on DU-145 prostate; 8.56 µM in the test with SF-295 CNS; 5.6 µM in the test with HS 578T breast. The TGI turned out to be 6.76 µM in the test on UACC-62 melanoma, 11 µM with SN12C renal, 6.63 µM in the test with NCI-H522 lung and 6.4 µM in the test with A498 renal.

On to `Fc1ccc(CNc2c3ccccc3nc3ccccc23)cc1`, for which the GI50 was 3.12 µM in the test on CCRF-CEM leukemia; 2.84 µM in the test on A549 NSCLC; 1.79 µM with MCF7 breast; 3.18 µM with DU-145 prostate; 2.9 µM in the test on SF-295 CNS; 3.05 µM in the test with HS 578T breast. Further, the GI50 with UACC-62 melanoma is 2.58 µM; in the test on SN12C renal, 2.64 µM; in the test on NCI-H522 lung it was 1.66 µM; in the test on A498 renal, 1.36 µM. Also, the TGI with CCRF-CEM leukemia is > 100 µM; with A549 NSCLC it was 10.8 µM; in the test with MCF7 breast, 4.97 µM; with DU-145 prostate it was 11.3 µM; in the test on SF-295 CNS it was 11.1 µM; with HS 578T breast, 10.7 µM. Also, the TGI is 9.13 µM in the test on UACC-62 melanoma, 10.5 µM in the test with SN12C renal, 4.24 µM in the test on NCI-H522 lung and 3.24 µM in the test with A498 renal.

As for `CCOC(=O)c1ccc2c(c1)[n+](=O)c(C(=O)c1ccc3ccccc3c1)c(C(F)(F)F)n2[O-]`, the GI50 in the test on CCRF-CEM leukemia was 0.4 µM; in the test on A549 NSCLC, 1.89 µM; in the test with MCF7 breast, 0.901 µM; in the test on DU-145 prostate it was 1.78 µM; in the test with SF-295 CNS, 1.78 µM; in the test on HS 578T breast, 1.57 µM. The GI50 was 1.52 µM in the test on UACC-62 melanoma, 1.63 µM in the test with SN12C renal, 0.458 µM in the test with NCI-H522 lung and 1.66 µM with A498 renal. In addition, the concentration for total growth inhibition (TGI) in the test on CCRF-CEM leukemia amounted to 2.29 µM; in the test with A549 NSCLC it was 3.62 µM; with MCF7 breast, 2.42 µM; in the test with DU-145 prostate, 3.16 µM; in the test with SF-295 CNS, 3.17 µM; in the test on HS 578T breast it was 3.62 µM. The TGI with UACC-62 melanoma was 2.93 µM; with SN12C renal, 3.58 µM; with NCI-H522 lung it was 1.87 µM; in the test with A498 renal, 3.09 µM.

For the compound `CCOC(=O)C1=C(N)Oc2c(sc3c(C)cccc23)C1c1ccc(Cl)cc1` (stereo not given), the GI50 in the test with CCRF-CEM leukemia was 3.65 µM; in the test with A549 NSCLC, 3.9 µM; with MCF7 breast it was 0.655 µM; in the test on DU-145 prostate, 3.89 µM; in the test on SF-295 CNS, 1.89 µM; in the test with HS 578T breast, 1.78 µM. For the same compound, the GI50 was 1.08 µM in the test on UACC-62 melanoma, 3.97 µM in the test on SN12C renal, 1.22 µM in the test on NCI-H522 lung and 1 µM in the test on A498 renal. Besides, the TGI in the test on CCRF-CEM leukemia was determined as 24.1 µM; in the test with A549 NSCLC, 18.8 µM; in the test with MCF7 breast it was 10.9 µM; with DU-145 prostate, 14.1 µM; in the test with SF-295 CNS, 4.26 µM; in the test with HS 578T breast, 6.95 µM. In addition, the TGI in the test with UACC-62 melanoma was determined as 13.3 µM; in the test with SN12C renal it was 16.1 µM; in the test with NCI-H522 lung it was 6.28 µM; with A498 renal it was 7.09 µM.

Consider `CC1(C)CC(=O)C(C(c2cccc(O)c2O)C2C(=O)CC(C)(C)CC2=O)C(=O)C1`, for which the TGI in the test on CCRF-CEM leukemia, in the test on A549 NSCLC, in the test with MCF7 breast, with DU-145 prostate, in the test on SF-295 CNS and with HS 578T breast was > 100 µM in each case. Also, the TGI in the test with UACC-62 melanoma, with SN12C renal, in the test on NCI-H522 lung and in the test on A498 renal was > 100 µM in each case.

Turning to `CCc1ccc(CCC(=O)Nc2ncc(Cc3cc(Cl)ccc3Cl)s2)o1`, the GI50 with CCRF-CEM leukemia is 0.843 µM; with A549 NSCLC, 2.14 µM; in the test with MCF7 breast, 0.399 µM; with DU-145 prostate, 1.74 µM; with SF-295 CNS, 1.25 µM; with HS 578T breast, 1.29 µM. The GI50 with UACC-62 melanoma is 1.49 µM; in the test with SN12C renal, 1.93 µM; in the test on NCI-H522 lung, 1.62 µM; in the test on A498 renal, 1.19 µM. In addition, the TGI in the test on CCRF-CEM leukemia was > 50 µM; in the test with A549 NSCLC, > 50 µM; in the test with MCF7 breast it was > 50 µM; with DU-145 prostate it was > 50 µM; in the test with SF-295 CNS, 7.17 µM; in the test with HS 578T breast, 5.96 µM. For the same compound, the TGI with UACC-62 melanoma is > 50 µM; in the test with SN12C renal, 36.9 µM; in the test on NCI-H522 lung, > 50 µM; with A498 renal, 3.46 µM.

Regarding `O=C(/C=C/c1ccccn1)c1ccccc1O`, the GI50 in the test with CCRF-CEM leukemia was 1.71 µM; with A549 NSCLC, 5.37 µM; in the test on MCF7 breast, 2.47 µM; in the test on DU-145 prostate, 2.31 µM; with SF-295 CNS, 2.23 µM; in the test with HS 578T breast, 2.36 µM. Also, the GI50 with UACC-62 melanoma was 1.82 µM; in the test on SN12C renal, 2.8 µM; in the test on NCI-H522 lung, 1.56 µM; in the test with A498 renal, 2.21 µM. Also, the TGI with CCRF-CEM leukemia turned out to be 5.43 µM; in the test on A549 NSCLC, 20.4 µM; in the test on MCF7 breast it was 10.4 µM; in the test on DU-145 prostate it was 5.69 µM; in the test on SF-295 CNS, 4.67 µM; in the test on HS 578T breast, 7.27 µM. For the same compound, the concentration for total growth inhibition (TGI) in the test on UACC-62 melanoma came out at 3.87 µM; with SN12C renal it was 9.36 µM; in the test with NCI-H522 lung, 3.08 µM; in the test with A498 renal, 7.14 µM.

Regarding `C=C1C(=O)O[C@H]2[C@H]1CC/C(C=Nc1ccc(C(F)(F)F)cc1N)=C\CC[C@@]1(C)O[C@@H]21`, the GI50 is 3.16 µM with CCRF-CEM leukemia; 17.2 µM in the test on A549 NSCLC; 3.06 µM with MCF7 breast; 3.21 µM in the test on DU-145 prostate; 13.1 µM with SF-295 CNS; 11.2 µM with HS 578T breast. The GI50 was 2.91 µM with UACC-62 melanoma, 10.1 µM with SN12C renal, 2.43 µM with NCI-H522 lung and 17 µM with A498 renal. Besides, the TGI with CCRF-CEM leukemia came out at 11.2 µM; in the test on A549 NSCLC it was 32.7 µM; in the test with MCF7 breast, 16 µM; with DU-145 prostate, 13.1 µM; in the test with SF-295 CNS, 26.3 µM; with HS 578T breast, 40.4 µM. The TGI in the test on UACC-62 melanoma was determined as 15.6 µM; with SN12C renal it was 26.6 µM; in the test on NCI-H522 lung, 7.8 µM; with A498 renal, 30.8 µM.

Values taken from PubChem BioAssay (NCI).
